Counter-ions that a name gives are not always drawn. Like-named read-outs stand apart in the source and are kept apart here.
Biological target: T1, METTL3/14 (Homo sapiens, UniProt Q86U44)
T1 construct: The enzyme used was full-length his-tagged METTL3; His; made in house
Assay: METTL3/14 methyltransferase assay (METTL3_14 RFMS, RapidFire mass spectrometry);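 note: recombinant His-tagged METTL3 with FLAG-tagged METTL14 from baculovirus, SAH product quantified by mass spectrometry against isotope-labelled internal standards, 60 min at room temperature, scaled between no-RNA and DMSO-only wells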
Type: biochemical
Conditions: read-out: METTL3_14 RFMS IC50

[1] = 5 nM METTL3/14, 0.2 μM RNA substrate, 0.5 μM SAM, lower limit of the assay IC50=5 nM, Compounds 1-62
[2] = 5 nM METTL3/14, 0.2 μM RNA substrate, 0.5 μM SAM, lower limit of the assay IC50=5 nM, Compounds 63-265

T1 sequence (Q86U44 whole entry): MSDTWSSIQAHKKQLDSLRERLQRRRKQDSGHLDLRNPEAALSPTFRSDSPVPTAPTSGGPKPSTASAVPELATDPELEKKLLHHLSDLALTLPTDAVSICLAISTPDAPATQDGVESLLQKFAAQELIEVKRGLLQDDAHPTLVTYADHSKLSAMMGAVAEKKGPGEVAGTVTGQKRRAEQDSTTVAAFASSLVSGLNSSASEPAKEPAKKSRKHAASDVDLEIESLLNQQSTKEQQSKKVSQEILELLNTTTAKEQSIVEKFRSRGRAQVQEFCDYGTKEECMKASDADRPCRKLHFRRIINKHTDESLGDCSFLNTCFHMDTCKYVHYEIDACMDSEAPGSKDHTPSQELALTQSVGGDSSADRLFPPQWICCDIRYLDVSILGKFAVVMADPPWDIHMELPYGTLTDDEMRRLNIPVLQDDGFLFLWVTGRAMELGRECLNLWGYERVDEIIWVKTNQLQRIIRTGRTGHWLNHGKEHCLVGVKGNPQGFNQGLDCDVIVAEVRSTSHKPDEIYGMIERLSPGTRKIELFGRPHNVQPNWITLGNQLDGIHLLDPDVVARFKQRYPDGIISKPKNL
T1 sequence (Q9HCE5 whole entry partner): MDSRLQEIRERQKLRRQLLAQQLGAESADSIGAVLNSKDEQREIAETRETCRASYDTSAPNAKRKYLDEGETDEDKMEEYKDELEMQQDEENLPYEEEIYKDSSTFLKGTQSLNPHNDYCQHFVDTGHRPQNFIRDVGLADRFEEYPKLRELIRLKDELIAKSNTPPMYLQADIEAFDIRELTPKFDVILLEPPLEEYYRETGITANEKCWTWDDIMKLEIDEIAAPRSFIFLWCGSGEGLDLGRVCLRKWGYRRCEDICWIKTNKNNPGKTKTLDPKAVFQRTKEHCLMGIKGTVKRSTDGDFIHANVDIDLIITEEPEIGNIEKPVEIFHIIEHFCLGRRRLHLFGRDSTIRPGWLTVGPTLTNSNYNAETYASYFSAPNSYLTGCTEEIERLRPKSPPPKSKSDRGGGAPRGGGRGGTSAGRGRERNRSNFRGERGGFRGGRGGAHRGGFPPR

| SMILES | IC50 [2] [µM] | other results |
| --- | --- | --- |
| COc1ccn2cc(CNC(=O)c3cccc4[nH]ncc34)nc2c1 [Compound 7, N-({7-methoxyimidazo[1,2-a]pyridin-2-yl}methyl)-1H-indazole-4-carboxamide] |  | IC50 [1]: 2.67 µM |
| CC1(C)CCOC1CNCc1ccc2nc(CNC(=O)c3cc(=O)n4ccccc4n3)cn2c1 (stereo not shown) [Compound 150, N-{[6-({[(3,3-dimethyloxolan-2-yl)methyl]amino}methyl)imidazo[1,2-a]pyridin-2-yl]methyl}-4-oxo-4H-pyrido[1,2-a] pyrimidine-2-carboxamide] | 0.0299 |  |
| CC1CCCN(Cc2ccc3nc(CNC(=O)c4cc(=O)n5ccccc5n4)cn3c2)C1 (stereo not shown) [Compound 139, N-({6-[(3-methylpiperidin-1-yl)methyl]imidazo[1,2-a]pyridin-2-yl}methyl)-4-oxo-4H-pyrido[1,2-a]pyrimidine-2-carboxamide] | 0.0326 |  |
| O=C(NCc1cn2cc(CNC[C@H]3C[C@H]4CC[C@@H]3C4)ccc2n1)c1cc(=O)n2ccccc2n1 [Compound 348, N-({6-[({[(1R,2S,4S)-bicyclo[2.2.1]heptan-2-yl]methyl}amino)methyl]imidazo[1,2-a]pyridin-2-yl}methyl)-4-oxo-4H-pyrido[1,2-a]pyrimidine-2-carboxamide] |  | IC50 (5 nM METTL3/14, 0.2 μM RNA substrate, 0.5 μM SAM, lower limit of the assay IC50=5 nM, Compounds 266-351): 0.00902 µM |
| O=C(NCc1cn2cc(CNCc3ccc(Cl)cc3)ccc2n1)c1cc(=O)n2ccccc2n1 [Compound 73, N-{[6-({[(4-chlorophenyl)methyl]amino}methyl)imidazo [1,2-a]pyridin-2-yl]methyl}-4-oxo-4H-pyrido [1,2-a]pyrimidine-2-carboxamide] |  | IC50: 0.0649 µM |
| Cc1ccn2cc(CNC(=O)c3cc(Br)cc4[nH]ncc34)nc2c1 [Compound 11, 6-bromo-N-({7-methylimidazo[1,2-a]pyridin-2-yl}methyl)-1H-indazole-4-carboxamide] |  | IC50 [1]: 4.1 µM |
| O=C(NCc1cn2cc(CN3CCCC(C(F)(F)F)C3)ccc2n1)c1cc(=O)n2ccccc2n1 (stereo not shown) [Compound 142, 4-oxo-N-[(6-{[3-(trifluoromethyl)piperidin-1-yl]methyl}imidazo [1,2-a]pyridin-2-yl)methyl]-4H-pyrido[1,2-a] pyrimidine-2-carboxamide] | 0.0488 |  |
| CC1(CNCc2ccc3nc(CNC(=O)c4cc(=O)n5ccccc5n4)cn3c2)CCCCC1 [Compound 106, N-{[6-({[(1-methylcyclohexyl)methyl]amino}methyl)imidazo [1,2-a]pyridin-2-yl]methyl}-4-oxo-4H-pyrido [1,2-a]pyrimidine-2-carboxamide] | 0.015 |  |
| CNCc1ccc2nc(CNC(=O)c3cccc4[nH]ncc34)cn2c1 [Compound 44, N-({6-[(methylamino)methyl]imidazo[1,2-a]pyridin-2-yl}methyl)-1H-indazole-4-carboxamide dihydrochloride] |  | IC50 [1]: 5.05 µM |

More lines, main results first:

| IC50 [2] [µM] | SMILES | other results |
| --- | --- | --- |
| 0.0467 | O=C(NCc1cn2cc(CNCc3ccccc3)ccc2n1)c1cc(=O)c2ccccc2o1 [Compound 221, N-({6-[(benzylamino)methyl]imidazo[1,2-a]pyridin-2-yl}methyl)-4-oxo-4H-chromene-2-carboxamide] |  |
| 0.197 | CN(Cc1ccc2nc(CNC(=O)c3cc(=O)n4ccccc4n3)cn2c1)CC(C)(C)C [Compound 205, N-[(6-{[(2,2-dimethylpropyl) (methyl)amino]methyl}imidazo [1,2-a]pyridin-2-yl)methyl]-4-oxo-4H-pyrido [1,2-a]pyrimidine-2-carboxamide] |  |
| 0.597 | O=C(NCc1cn2cc(CNc3ccc(F)cn3)ccc2n1)c1cc(=O)n2ccccc2n1 [Compound 196, N-[(6-{[(5-fluoropyridin-2-yl)amino]methyl}imidazo[1,2-a]pyridin-2-yl)methyl]-4-oxo-4H-pyrido[1,2-a] pyrimidine-2-carboxamide] |  |
| 0.0441 | O=C(NCc1cn2cc(CNCC3CCCCC3)ccc2n1)c1cc(Br)cc2[nH]ncc12 [Compound 187, 6-bromo-N-[(6-{[(cyclohexylmethyl)amino]methyl}imidazo[1,2-a]pyridin-2-yl)methyl]-1H-indazole-4-carboxamide] |  |
